Laboratory results published in ChEMBL document CHEMBL5465560, “Selectivity Literature for EUbOPEN Chemogenomic Library” (2024).

Legend:
[1] = target: Bromodomain-containing protein 4 (Homo sapiens, UniProt O60885)
[2] = target: Tyrosine-protein kinase ABL1 (Homo sapiens, UniProt P00519); assay: Selectivity interaction (Kinase panel (Invitrogen)) EUB0000639a ABL1; conditions: at 200 nM
[3] = target: Serine/threonine-protein kinase Nek6 (Homo sapiens) (UniProt Q9HC98); assay: Selectivity interaction (Kinase panel (Invitrogen)) EUB0000639a NEK6; conditions: at 200 nM
[4] = target: T1, Serine/threonine-protein kinase TBK1 (Homo sapiens) (UniProt Q9UHD2); assay: Selectivity interaction (ActivX KiNativ screen (kinase selectivity in THP-1 cell lysates)) EUB0000639a TBK1; format: subcellular; conditions: lysate, at 0.01 µM
T1 sequence (whole entry): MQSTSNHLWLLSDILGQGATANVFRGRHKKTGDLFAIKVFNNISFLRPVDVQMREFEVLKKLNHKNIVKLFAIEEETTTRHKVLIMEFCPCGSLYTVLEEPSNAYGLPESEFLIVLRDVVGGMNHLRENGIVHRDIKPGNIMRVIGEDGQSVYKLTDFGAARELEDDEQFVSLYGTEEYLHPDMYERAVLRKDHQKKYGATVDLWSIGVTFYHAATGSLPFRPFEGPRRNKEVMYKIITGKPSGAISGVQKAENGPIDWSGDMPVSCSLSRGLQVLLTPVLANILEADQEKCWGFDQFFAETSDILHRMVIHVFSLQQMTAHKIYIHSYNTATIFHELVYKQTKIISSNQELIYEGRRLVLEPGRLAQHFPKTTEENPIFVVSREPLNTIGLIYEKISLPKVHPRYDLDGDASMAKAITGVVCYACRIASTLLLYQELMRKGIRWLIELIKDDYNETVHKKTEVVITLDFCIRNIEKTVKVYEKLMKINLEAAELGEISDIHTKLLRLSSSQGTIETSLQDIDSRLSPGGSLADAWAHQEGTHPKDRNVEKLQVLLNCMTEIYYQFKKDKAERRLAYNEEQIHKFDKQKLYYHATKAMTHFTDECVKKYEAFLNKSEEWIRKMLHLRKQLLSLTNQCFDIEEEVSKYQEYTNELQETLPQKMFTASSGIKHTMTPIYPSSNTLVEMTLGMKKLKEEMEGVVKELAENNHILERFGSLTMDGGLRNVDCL

[5] = target: T2, Mitogen-activated protein kinase 13 (Homo sapiens) (UniProt O15264); assay: Selectivity interaction (Kinase screening (Upstate/Millipore)) EUB0000604a MAPK13
T2 sequence (whole entry): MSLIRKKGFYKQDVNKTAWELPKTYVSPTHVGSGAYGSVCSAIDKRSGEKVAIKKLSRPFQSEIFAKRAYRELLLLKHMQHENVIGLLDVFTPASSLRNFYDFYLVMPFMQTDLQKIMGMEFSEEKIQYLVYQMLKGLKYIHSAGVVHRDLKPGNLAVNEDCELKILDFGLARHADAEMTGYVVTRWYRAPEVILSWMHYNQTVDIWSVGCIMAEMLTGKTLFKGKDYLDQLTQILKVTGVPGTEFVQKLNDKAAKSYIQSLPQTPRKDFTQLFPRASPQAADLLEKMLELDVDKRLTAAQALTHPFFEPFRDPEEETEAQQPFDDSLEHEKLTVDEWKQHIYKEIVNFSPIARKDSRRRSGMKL

[6] = target: T3, Serine/threonine-protein kinase PLK4 (Homo sapiens) (UniProt O00444); assay: Selectivity interaction (KinomeScan (DiscoverX)) EUB0001619a PLK4; conditions: at 1 µM
T3 sequence (whole entry): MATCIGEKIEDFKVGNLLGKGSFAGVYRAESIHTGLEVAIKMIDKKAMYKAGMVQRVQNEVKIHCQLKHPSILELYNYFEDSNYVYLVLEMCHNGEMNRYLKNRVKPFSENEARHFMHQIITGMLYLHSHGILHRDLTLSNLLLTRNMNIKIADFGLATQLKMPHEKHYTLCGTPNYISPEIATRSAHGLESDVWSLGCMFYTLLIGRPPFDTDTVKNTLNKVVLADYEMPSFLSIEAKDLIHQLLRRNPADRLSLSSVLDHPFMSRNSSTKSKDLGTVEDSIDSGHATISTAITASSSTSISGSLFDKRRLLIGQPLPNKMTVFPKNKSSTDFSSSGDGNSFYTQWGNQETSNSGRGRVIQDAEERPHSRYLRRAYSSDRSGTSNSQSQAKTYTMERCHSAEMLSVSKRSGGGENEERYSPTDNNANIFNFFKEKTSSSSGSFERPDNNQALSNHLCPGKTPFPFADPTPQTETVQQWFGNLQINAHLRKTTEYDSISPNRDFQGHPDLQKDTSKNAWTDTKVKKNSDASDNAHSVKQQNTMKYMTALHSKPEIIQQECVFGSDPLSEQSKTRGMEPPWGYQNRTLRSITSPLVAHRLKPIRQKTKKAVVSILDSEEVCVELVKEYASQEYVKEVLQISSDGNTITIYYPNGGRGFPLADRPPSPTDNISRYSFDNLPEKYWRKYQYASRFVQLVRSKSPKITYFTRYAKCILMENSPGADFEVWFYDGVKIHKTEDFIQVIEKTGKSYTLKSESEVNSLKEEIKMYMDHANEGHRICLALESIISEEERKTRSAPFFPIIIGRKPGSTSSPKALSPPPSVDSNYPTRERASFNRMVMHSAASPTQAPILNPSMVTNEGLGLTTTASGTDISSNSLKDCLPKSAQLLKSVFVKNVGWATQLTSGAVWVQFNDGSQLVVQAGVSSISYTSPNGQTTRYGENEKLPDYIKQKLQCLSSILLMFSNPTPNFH

[7] = target: Tyrosine-protein kinase Lck (Homo sapiens, UniProt P06239); assay: Selectivity interaction (SelectScreen profiling (Invitrogen)) EUB0000607a LCK; conditions: at 2 µM
[8] = target: SRSF protein kinase 2 (Homo sapiens) (UniProt P78362); assay: Selectivity interaction (SelectScreen profiling (Invitrogen)) EUB0000607a SRPK2; conditions: at 2 µM
SRSF protein kinase 2 (Homo sapiens), sequence (P78362 whole entry, looked up): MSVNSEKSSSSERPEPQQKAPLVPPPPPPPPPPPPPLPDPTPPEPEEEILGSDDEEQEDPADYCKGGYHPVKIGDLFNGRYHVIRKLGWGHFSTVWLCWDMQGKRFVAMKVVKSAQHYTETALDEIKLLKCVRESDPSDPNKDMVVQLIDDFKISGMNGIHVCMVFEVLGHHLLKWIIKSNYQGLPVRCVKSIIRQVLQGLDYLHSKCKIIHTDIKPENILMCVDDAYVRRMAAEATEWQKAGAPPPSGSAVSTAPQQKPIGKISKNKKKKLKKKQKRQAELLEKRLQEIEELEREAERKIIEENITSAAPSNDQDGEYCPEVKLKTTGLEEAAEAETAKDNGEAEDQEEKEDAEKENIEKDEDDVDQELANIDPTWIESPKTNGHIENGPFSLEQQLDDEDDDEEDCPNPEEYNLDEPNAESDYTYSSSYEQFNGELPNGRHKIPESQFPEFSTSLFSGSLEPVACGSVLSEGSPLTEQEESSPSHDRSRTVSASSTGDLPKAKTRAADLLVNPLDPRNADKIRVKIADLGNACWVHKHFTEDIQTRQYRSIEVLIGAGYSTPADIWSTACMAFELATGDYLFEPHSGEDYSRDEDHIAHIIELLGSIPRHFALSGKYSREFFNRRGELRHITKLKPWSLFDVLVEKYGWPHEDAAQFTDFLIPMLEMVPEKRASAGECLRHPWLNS

Serine/threonine-protein kinase Nek6 (Homo sapiens), sequence (Q9HC98 whole entry): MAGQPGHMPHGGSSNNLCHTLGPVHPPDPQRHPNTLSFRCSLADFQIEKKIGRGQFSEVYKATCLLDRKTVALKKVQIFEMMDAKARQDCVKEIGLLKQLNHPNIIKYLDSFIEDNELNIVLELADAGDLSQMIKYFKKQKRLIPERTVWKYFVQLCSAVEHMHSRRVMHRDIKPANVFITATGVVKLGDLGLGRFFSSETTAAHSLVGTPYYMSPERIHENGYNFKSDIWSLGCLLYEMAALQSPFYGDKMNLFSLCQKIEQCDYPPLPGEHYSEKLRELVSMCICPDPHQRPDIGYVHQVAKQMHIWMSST
Tyrosine-protein kinase Lck, sequence (P06239 2-509 limits assumed): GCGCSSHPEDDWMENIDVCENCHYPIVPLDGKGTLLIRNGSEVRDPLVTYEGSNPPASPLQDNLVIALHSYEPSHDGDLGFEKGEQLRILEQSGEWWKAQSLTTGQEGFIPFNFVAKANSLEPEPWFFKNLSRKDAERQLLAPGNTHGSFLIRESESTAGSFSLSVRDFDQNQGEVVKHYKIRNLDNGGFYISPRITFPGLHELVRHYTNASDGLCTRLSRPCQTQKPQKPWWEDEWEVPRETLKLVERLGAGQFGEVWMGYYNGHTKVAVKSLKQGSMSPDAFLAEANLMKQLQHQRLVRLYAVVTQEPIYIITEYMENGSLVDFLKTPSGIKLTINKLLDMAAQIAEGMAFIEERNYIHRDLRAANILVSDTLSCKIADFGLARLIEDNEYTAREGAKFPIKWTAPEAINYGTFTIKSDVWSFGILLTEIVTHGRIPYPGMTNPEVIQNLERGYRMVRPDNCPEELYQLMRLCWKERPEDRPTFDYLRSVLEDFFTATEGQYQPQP
Tyrosine-protein kinase ABL1, sequence (P00519 whole entry): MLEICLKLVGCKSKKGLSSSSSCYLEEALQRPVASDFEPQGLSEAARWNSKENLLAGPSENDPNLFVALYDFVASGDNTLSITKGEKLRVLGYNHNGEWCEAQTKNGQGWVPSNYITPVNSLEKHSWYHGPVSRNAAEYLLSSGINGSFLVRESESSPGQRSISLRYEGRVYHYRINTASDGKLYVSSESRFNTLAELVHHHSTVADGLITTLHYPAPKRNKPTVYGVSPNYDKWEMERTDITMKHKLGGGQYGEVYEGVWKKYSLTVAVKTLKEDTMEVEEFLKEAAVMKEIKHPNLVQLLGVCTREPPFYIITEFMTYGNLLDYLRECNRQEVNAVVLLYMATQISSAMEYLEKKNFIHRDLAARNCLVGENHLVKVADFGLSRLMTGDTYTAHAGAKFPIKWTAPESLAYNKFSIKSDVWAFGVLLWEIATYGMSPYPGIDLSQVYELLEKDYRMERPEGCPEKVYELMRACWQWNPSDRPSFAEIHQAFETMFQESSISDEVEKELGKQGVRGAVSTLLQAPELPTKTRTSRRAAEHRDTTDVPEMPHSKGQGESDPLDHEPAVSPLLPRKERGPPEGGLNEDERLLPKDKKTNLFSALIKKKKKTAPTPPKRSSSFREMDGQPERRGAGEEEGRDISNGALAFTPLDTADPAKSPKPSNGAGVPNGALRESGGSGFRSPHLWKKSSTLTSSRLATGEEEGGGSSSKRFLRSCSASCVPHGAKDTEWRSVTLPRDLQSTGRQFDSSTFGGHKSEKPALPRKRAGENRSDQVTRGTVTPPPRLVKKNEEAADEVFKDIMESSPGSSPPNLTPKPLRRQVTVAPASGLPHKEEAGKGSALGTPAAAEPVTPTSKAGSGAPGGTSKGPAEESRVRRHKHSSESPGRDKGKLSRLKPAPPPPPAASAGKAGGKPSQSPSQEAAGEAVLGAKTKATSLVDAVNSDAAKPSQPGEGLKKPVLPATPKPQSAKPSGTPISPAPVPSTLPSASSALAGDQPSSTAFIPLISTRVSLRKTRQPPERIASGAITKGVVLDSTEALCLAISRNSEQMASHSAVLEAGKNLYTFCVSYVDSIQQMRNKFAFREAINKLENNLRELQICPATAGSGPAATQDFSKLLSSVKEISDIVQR

`CC(=O)Nc1cccc(-n2c(=O)n(C3CC3)c(=O)c3c(Nc4ccc(I)cc4F)n(C)c(=O)c(C)c32)c1` was tested, and the Kdapp [1] was 1920 nM.
For `CC[C@@H]1[C@H](F)C(=O)N[C@@H]1COc1nccc2cc(C(N)=O)c(OC)cc12` [ZIMLOVISERTIB], the % of inhibition [2] was 1.34%, the % of inhibition [3] was 6.81% and the % of inhibition [4] was 1.3%.
With `Cc1cnc(Nc2ccc(F)cc2Cl)nc1-c1c[nH]c(C(=O)N[C@H](CO)c2cccc(Cl)c2)c1` the % of inhibition [5] was 54%.
In the case of `N#Cc1cccc(-c2c[nH]c3ncnc(N4CCOCC4)c23)c1`, the % of control [6] is reported as 33%.
With `CNC(=O)Nc1ccc(-c2nc(N3CC4CCC(C3)O4)c3cnn(C4CCC5(CC4)OCCO5)c3n2)cc1` the % of inhibition [7] was 10% and the % of inhibition [8] was 1%.
